Read-outs that look alike come from different tables or passages of the source.
Experiments:
Format in all cases: cell-based, Acinetobacter baumannii
[1] = test system: A. baumannii LAC-4 strain; assay: broth microdilution checkerboard MIC/synergy; conditions: for FICI / Interpretation: second antibiotic in combination with rifabutin, LAC-4; for MICs combi: strain LAC-4
Protocol: (§1) Checkerboards were performed according to the CLSI parameters used for microbroth dilution MIC5. CA-MHB, iron-depleted CA-MHB (ID-CA-MHB) or RPMI supplemented with 10% FCS medium were used as specified and ID-CA-MHB was prepared according to CLSI guidelines. […] FICI is calculated as follows: […]
The checkerboards were performed in CA-MHB or ID-CA-MHB for cefiderocol.

[2] = test system: panel of MDR clinical isolates of A. baumannii
Protocol: as §1

[3] = test system: A. baumannii HUMC1; assay: broth microdilution checkerboard MIC/synergy; conditions: for MIC: Acinetobacter baumannii, HUMC1, read-out: MICs alone; for MICs combi: strain HUMC1
Protocol: as §1

[4] = test system: A. baumannii IHMA919656; assay: broth microdilution checkerboard MIC/synergy; conditions: for MICs combi: strain IHMA919656
Protocol: as §1

[5] = test system: A. baumannii IHMA690517; assay: broth microdilution checkerboard MIC/synergy; conditions: for MIC: Acinetobacter baumannii, IHMA690517, strain IHMA690517, antibiotic alone, read-out: MICs alone; for MICs combi: strain IHMA690517
Protocol: as §1

[6] = test system: A. baumannii UNT091-1; assay: broth microdilution checkerboard MIC/synergy; conditions: for MIC: Acinetobacter baumannii, UNT0911, strain UNT091-1, antibiotic alone, read-out: MICs alone
Protocol: as §1

[7] = test system: A. baumannii 401046-18; assay: broth microdilution checkerboard MIC/synergy; conditions: for MIC: Acinetobacter baumannii, 40104618, strain 401046-18, antibiotic alone, read-out: MICs alone; for MICs combi: strain 401046-18
Protocol: as §1

[8] = test system: A. baumannii UNT087-1; assay: broth microdilution checkerboard MIC/synergy; conditions: for MIC: Acinetobacter baumannii, UNT0871, strain UNT087-1, antibiotic alone, read-out: MICs alone; for MICs combi: strain UNT087-1
Protocol: as §1

[9] = test system: A. baumannii IHMA867231; assay: broth microdilution checkerboard MIC/synergy; conditions: for MIC: Acinetobacter baumannii, IHMA867231, strain IHMA867231, antibiotic alone, read-out: MICs alone; for MICs combi: strain IHMA867231
Protocol: as §1

[10] = test system: A. baumannii IHMA1013816; assay: broth microdilution checkerboard MIC/synergy; conditions: for MICs combi: strain IHMA1013816
Protocol: as §1

[11] = test system: A. baumannii 402608-17; assay: broth microdilution checkerboard MIC/synergy; conditions: for MIC: Acinetobacter baumannii, 40260817, strain 402608-17, antibiotic alone, read-out: MICs alone; for MICs combi: strain 402608-17
Protocol: as §1

[12] = test system: A. baumannii 401255-18; assay: broth microdilution checkerboard MIC/synergy; conditions: for MIC: Acinetobacter baumannii, 40125518, strain 401255-18, antibiotic alone, read-out: MICs alone; for MICs combi: strain 401255-18
Protocol: as §1

[13] = test system: A. baumannii UNT191-1; assay: broth microdilution checkerboard MIC/synergy; conditions: for MIC: Acinetobacter baumannii, UNT1911, strain UNT191-1, antibiotic alone, read-out: MICs alone; for MICs combi: strain UNT191-1
Protocol: as §1

[14] = test system: A. baumannii 402292-17; assay: broth microdilution checkerboard MIC/synergy; conditions: for MIC: Acinetobacter baumannii, 40229217, strain 402292-17, antibiotic alone, read-out: MICs alone; for MICs combi: strain 402292-17
Protocol: as §1

[15] = test system: A. baumannii UNT239-1; assay: broth microdilution checkerboard MIC/synergy; conditions: for MICs combi: strain UNT239-1
Protocol: as §1

[16] = test system: A. baumannii IHMA863866; assay: broth microdilution checkerboard MIC/synergy
Protocol: as §1

[17] = test system: A. baumannii UNT238-1; assay: broth microdilution checkerboard MIC/synergy; conditions: ID-CA-MHB
Protocol: as §1

[18] = rifampicin/colistin in combination
[19] = rifampicin/colistin checkerboard
[20] = rifabutin/cefiderocol in combination
[21] = rifabutin/cefiderocol checkerboard
[22] = rifabutin/cefiderocol checkerboard, ID-CA-MHB
[23] = rifabutin/cefiderocol in combination, ID-CA-MHB

## C[C@@H](O)[C@H]1C(=O)N2C(C(=O)O)=C(S[C@@H]3CN[C@H](C(=O)N(C)C)C3)[C@H](C)[C@H]12 [Meropenem, meropenem]
[1]; CA-MHB
  FICI: 1
  Interpretation: indifferent (indifferent (FICI>0.50 and ≤4))

## CN(C)[C@@H]1C(O)=C(C(N)=O)C(=O)[C@@]2(O)C(O)=C3C(=O)c4c(O)c(NC(=O)CN5CCCC5)cc(F)c4C[C@H]3C[C@@H]12 [Eravacycline, eravacycline]
[1]; CA-MHB
  FICI: 1
  Interpretation: indifferent (indifferent (FICI>0.50 and ≤4))

## CO/N=C(\C(=O)N[C@@H]1C(=O)N2C(C(=O)O)=C(COC(C)=O)CS[C@H]12)c1csc(N)n1 [Cefotaxime, cefotaxime]
[1]; CA-MHB
  FICI: 1.5
  Interpretation: indifferent (indifferent (FICI>0.50 and ≤4))

## CO[C@H]1/C=C/O[C@@]2(C)Oc3c(C)c(O)c4c(O)c(c(/C=N/N5CCN(C)CC5)c(O)c4c3C2=O)NC(=O)/C(C)=C\C=C\[C@H](C)[C@H](O)[C@@H](C)[C@@H](O)[C@@H](C)[C@H](OC(C)=O)[C@@H]1C [Rifampicin, rifampicin]
[2]; in combination with colistin, isolates with mutations in the rpoB gene
  rifampicin combination MICs: ≥ 32 mg/L
[2]; rifampicin with colistin
  strains on which synergy was observed: 88%
[3]
  MIC: 4 µg/mL
[3]; [18]
  MICs combi: 1 mg/L
[4]; [18]
  MICs combi: 0.03 mg/L
[5]; [19]
  MIC: 4 µg/mL
[5]; [18]
  MICs combi: 0.06 mg/L
[6]; [19]
  MIC: 4 µg/mL
[7]; [19]
  MIC: 512 µg/mL
[7]; [18]
  MICs combi: 64 mg/L
[8]; [19]
  MIC: 4 µg/mL
[8]; [18]
  MICs combi: 4 mg/L
[9]; [19]
  MIC: 512 µg/mL
[9]; [18]
  MICs combi: 32 mg/L
[10]; [18]
  MICs combi: 0.06 mg/L
[11]; [19]
  MIC: 512 µg/mL
[11]; [18]
  MICs combi: 64 mg/L
[12]; [19]
  MIC: 512 µg/mL
[12]; [18]
  MICs combi: 128 mg/L
[13]; [19]
  MIC: 4 µg/mL
[13]; [18]
  MICs combi: 0.25 mg/L
[14]; [19]
  MIC: 512 µg/mL
[14]; [18]
  MICs combi: 256 mg/L
[15]; [18]
  MICs combi: 0.25 mg/L
[1]; [18]
  MICs combi: 0.06 mg/L

## CC(C)(O/N=C(\C(=O)N[C@@H]1C(=O)N2C(C(=O)[O-])=C(C[N+]3(CCNC(=O)c4ccc(O)c(O)c4Cl)CCCC3)CS[C@H]12)c1csc(N)n1)C(=O)O [Cefiderocol, cefiderocol]
[2]; in combination with rifabutin, all A. baumannii strains tested (16 MDR isolates)
  decrease in the MIC of cefiderocol: ≥ 4 fold
[2]; rifabutin/cefiderocol, panel of strains
  strains on which synergy was observed: 100%
[3]
  MIC: 2 µg/mL
[3]; [20]
  MICs combi: 0.5 mg/L
[4]; Acinetobacter baumannii, IHMA919656, strain IHMA919656, antibiotic alone, rifabutin/cefiderocol checkerboard, read-out: MICs alone
  MIC: 0.125 µg/mL
[4]; [20]
  MICs combi: 0.03 mg/L
[5]; [21]
  MIC: 0.25 µg/mL
[5]; [20]
  MICs combi: 0.06 mg/L
[6]; [21]
  MIC: 4 µg/mL
[6]; strain UNT091-1, rifabutin/cefiderocol in combination
  MICs combi: 1 mg/L
[7]; [22]
  MIC: 128 µg/mL
[7]; [23]
  MICs combi: 32 mg/L
[8]; [21]
  MIC: 0.5 µg/mL
[8]; [20]
  MICs combi: 0.125 mg/L
[16]; Acinetobacter baumannii, IHMA863866, read-out: MICs alone
  MIC: 4 µg/mL
[16]; strain IHMA863866, rifabutin/cefiderocol in combination
  MICs combi: 1 mg/L
[9]; [21]
  MIC: 1 µg/mL
[9]; [20]
  MICs combi: 0.25 mg/L
[10]; Acinetobacter baumannii, IHMA1013816, strain IHMA1013816, antibiotic alone, rifabutin/cefiderocol checkerboard, read-out: MICs alone
  MIC: 0.06 µg/mL
[10]; [20]
  MICs combi: 0.016 mg/L
[17]; Acinetobacter baumannii, UNT2381, strain UNT238-1, antibiotic alone, rifabutin/cefiderocol checkerboard, read-out: MICs alone
  MIC: 4 µg/mL
[17]; strain UNT238-1, rifabutin/cefiderocol in combination
  MICs combi: 1 mg/L
[11]; [21]
  MIC: 8 µg/mL
[11]; [20]
  MICs combi: 2 mg/L
[12]; [21]
  MIC: 16 µg/mL
[12]; [20]
  MICs combi: 4 mg/L
[13]; [22]
  MIC: 16 µg/mL
[13]; [23]
  MICs combi: 4 mg/L
[14]; [21]
  MIC: > 32 µg/mL
[14]; [20]
  MICs combi: 8 mg/L
[15]; Acinetobacter baumannii, UNT2391, read-out: MICs alone
  MIC: 4 µg/mL
[15]; [23]
  MICs combi: 1 mg/L
[1]; Acinetobacter baumannii, LAC4STRAIN, read-out: MICs alone
  MIC: 1 µg/mL
[1]; ID-CA-MHB
  FICI: 0.5
  Interpretation: synergy (synergy (FICI≤0.5))
[1]; [23]
  MICs combi: 0.25 mg/L

## NC[C@H]1O[C@H](O[C@H]2[C@H](O)[C@@H](O[C@H]3O[C@H](CO)[C@@H](O)[C@H](N)[C@H]3O)[C@H](N)C[C@@H]2N)[C@H](N)C[C@@H]1O [Tobramycin, tobramycin]
[1]; CA-MHB
  FICI: 1.5
  Interpretation: indifferent (indifferent (FICI>0.50 and ≤4))

## CN(C)c1ccc(O)c2c1C[C@H]1C[C@H]3[C@H](N(C)C)C(O)=C(C(N)=O)C(=O)[C@@]3(O)C(O)=C1C2=O [Minocycline, minocycline]
[1]; CA-MHB
  FICI: 1
  Interpretation: indifferent (indifferent (FICI>0.50 and ≤4))
